Converted amounts (≈) assume the structure as drawn. “Also recorded” adds a separate entry of the source. Like-named read-outs stand apart in the source and are kept apart here.
Key:
recombinant MtbUGM = target: T1, recombinant MtbUGM (Mycobacterium tuberculosis, UniProt P9WIQ1); test: biochemical; settings: for inhibition at 100 µM: read-out: % inhib MtbUGM (100 μM)
T1 construct: made in house

M. smegmatis [1] = test: Microplate Alamar Blue Assay (MIC, liquid culture); assay type: cell-based; settings: Mycolicibacterium smegmatis
Protocol: The culture was diluted to OD600=˜0.02 in LB liquid media and added to 96-well plates at a final volume of 100 μL, with added inhibitor concentrations in two-fold dilutions. Perimeter wells were filled with sterile water. After 24 hours at 37° C. in a shaking incubator, 10 μL of the Alamar Blue reagent was added to each well. The plate was incubated for an additional 4 hours at 37° C., at which point fluorescence emission at 585 nm was measured using a plate reader. The lowest inhibitor concentration at which 99% or greater growth inhibition was observed was determined to be the MIC.

CeUGM = CeUGM inhibition; assay type: biochemical, C. elegans
C. elegans [2] = test: C. elegans growth and proliferation; assay type: in vivo; settings: threshold below which proliferation occurs at decreased rate
Source text: As concentration decreases, each of these compounds reaches a threshold where they no longer prevent worm proliferation, but rather cause retarded growth and development. The concentration that appears to be this threshold is reported above. Below this concentration, C. elegans growth and proliferation occur, but at a decreased rate with visible ill effects to the animal.

C. elegans [3] = test: C. elegans growth and proliferation; assay type: in vivo; settings: for Inhibition of C. elegans proliferation / Effective inhibitor of C. elegans growth at 250 μM: 250 μM; for Prevention of C. elegans maturation to adulthood and eventual proliferation: 100 μM
M. smegmatis [4] = test: Agar disk diffusion assay; design: zone of inhibition: dose or concentration left out as unconfirmed; settings: Mycolicibacterium smegmatis, read-out: Inhibition zone
Protocol: M. smegmatis was grown to saturation over 48 hours at 37° C. in Middlebrook 7H9 media with Albumin Dextrose Catalase (ADC) enrichment and 0.05% Tween80. The culture was diluted to OD600=˜0.2 in LB liquid media and 100 μL of dilute culture was spread onto LB agar plates, then allowed to soak into the agar for 1 hour at room temperature. Sterile disks (3 mm diameter) were impregnated with a solution of inhibitor in DMSO (1.5 μL) and placed on top of the bacterial lawn. […] The plates were incubated for 72 hours at 37° C., at which point a lawn of bacteria was visible. Zones of inhibition were measured as the average diameter of the region around a cloning disk where bacterial growth was not visible. For each disk, three diameter measurements were taken and averaged.

[5] = Aggregation by Dynamic Light Scattering (DLS); assay type: physicochemical; settings: for Aggregates observed?: 50 mM sodium phosphate buffer, 1% DMSO; for Aggregation by DLS: concentrations up to 50 μM
Protocol: A representative subset of the compounds (1, 2, and 4) were evaluated for aggregation by Dynamic Light Scattering (DLS), see Table 1. Samples for DLS analysis were prepared in 50 mM sodium phosphate buffer from DMSO inhibitor stocks, at a final DMSO concentration of 1%, and a range of final concentrations of inhibitor.

C. elegans [6] = test: Bleach sensitivity assay (time until first rupture); assay type: in vivo; settings: 50 microM; adult worms
Protocol: Compounds were tested at 50 microM. Adult worms (C. elegans) were chosen for testing and time until first rupture was measured when worms were placed in a bleach, sodium hydroxide solution. […] A graph showing results is provided as FIG. 4. Each treatment group has approximately an n=20. The Thompson Tau technique was used to determine statistical outliers.

[7] = Aggregation by Dynamic Light Scattering (DLS); assay type: physicochemical; settings: 1% DMSO
[8] = Table 2, standard deviation, n = 3
[9] = Table 3, liquid media, at least 99% growth inhibition
[10] = 50 μM compound (FIG. 1), read-out: Inhibition of MtbUGM activity
[11] = 50 μM, mean of two replicates, read-out: % inhib MtbUGM (50 μM)

T1 sequence (P9WIQ1 whole entry): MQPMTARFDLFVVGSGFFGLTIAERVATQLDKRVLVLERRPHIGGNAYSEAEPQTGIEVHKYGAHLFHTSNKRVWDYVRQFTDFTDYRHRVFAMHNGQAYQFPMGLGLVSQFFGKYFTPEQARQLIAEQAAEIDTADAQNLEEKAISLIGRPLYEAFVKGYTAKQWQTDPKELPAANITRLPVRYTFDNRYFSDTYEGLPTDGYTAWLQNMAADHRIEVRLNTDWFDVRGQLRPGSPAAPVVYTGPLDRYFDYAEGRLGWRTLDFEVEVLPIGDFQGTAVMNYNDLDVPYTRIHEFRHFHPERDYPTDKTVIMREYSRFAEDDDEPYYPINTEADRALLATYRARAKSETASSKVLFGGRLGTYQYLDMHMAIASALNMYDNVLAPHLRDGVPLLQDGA

Structure (SMILES) | IC50 (recombinant MtbUGM; [8]) [µM] | MIC (M. smegmatis [1]; [9]) [µM] | CeUGM % Inhibition at 2.5 μM (CeUGM) [%] | Apparent MIC (μM) to inhibit C. elegans propagation (C. elegans [2]) [µM] | Inhibition of C. elegans proliferation (C. elegans [3]) | Effective inhibitor of C. elegans growth at 250 μM (C. elegans [3]; Table 7) | zone of inhibition (M. smegmatis [4]) [mm] | Aggregates observed? ([5]; Conc. 10 uM) | Aggregates observed? ([5]; Conc. 25 uM) | Aggregates observed? ([5]; Conc. 50 uM) | Aggregates observed? ([5]; Conc. 100 uM) | Aggregation by DLS [5] | also measured
O=C(NS(=O)(=O)c1ccc([N+](=O)[O-])cc1)C(Cc1ccc(I)cc1)Nc1nc(-c2ccc(Cl)c(Cl)c2)cs1 (stereo not shown) [Compound 5, 2-((4-(3,4-dichlorophenyl)thiazol-2-yl)amino)-3-(4-iodophenyl)-N-((4-nitrophenyl)sulfonyl)propanamide] | 4 ± 1 | 50 (≈ 35.2 µg/mL) | 93.2 ± 0.1 | 125 | significantly inhibit | Yes | 4.2 ± 0.3 | – | – | – | – | – | –
O=C(NS(=O)(=O)c1ccccc1[N+](=O)[O-])C(Cc1ccc(I)cc1)Nc1nc(-c2ccc(Cl)c(Cl)c2)cs1 (stereo not shown) [Compound 9, 2-((4-(3,4-dichlorophenyl)thiazol-2-yl)amino)-3-(4-iodophenyl)-N-((2-nitrophenyl)sulfonyl)propanamide] | 2 ± 1 | 12.5 (≈ 8.79 µg/mL) | 92.1 ± 1.0 | 125 | significantly inhibit | Yes | 5.7 ± 0.1 | – | – | – | – | – | –
O=C(NS(=O)(=O)c1ccccc1)C(Cc1ccc(I)cc1)Nc1nc(-c2ccc(Cl)c(Cl)c2)cs1 (stereo not shown) [Compound 4, 2-((4-(3,4-dichlorophenyl)thiazol-2-yl)amino)-3-(4-iodophenyl)-N-(phenylsulfonyl)propanamide] | 7 ± 2 | 25 (≈ 16.5 µg/mL) | 92.2 ± 0.2 | 250 | significantly inhibit | Yes | 7.3 ± 0.6 | No | No | No | Yes | No aggregation was observed | Time until first rupture in bleach, sodium hydroxide solution (C. elegans [6]): enhances bleach sensitivity significantly; also recorded: statistically significant decrease
O=C(O)C(Cc1ccc(I)cc1)Nc1nc(-c2ccc(Cl)c(Cl)c2)cs1 (stereo not shown) [Compound 1, 2-((4-(3,4-Dichlorophenyl)thiazol-2-yl)amino)-3-(4-iodophenyl)propanoic acid] | 6 | 50 (≈ 26 µg/mL) | 69.5 ± 1.2 | – | – | No | 5 ± 0.1 | No | No | No | Yes | No aggregation was observed | inhibition at 50 µM (recombinant MtbUGM; [10]): > 90%
O=C(CC1Sc2nnc(Cc3ccc(Br)cc3)n2N=C1c1ccc(Cl)cc1)NS(=O)(=O)c1ccccc1 (stereo not shown) [Compound 13, 2-(3-(4-bromobenzyl)-6-(4-chlorophenyl)-7H-[1,2,4]triazolo[3,4-b][1,3,4]thiadiazin-7-yl)-N-(phenylsulfonyl)acetamide] | – | – | – | 250 | significantly inhibit | – | – | – | – | – | – | – | inhibition at 50 µM (recombinant MtbUGM; [11]): 92%; inhibition at 100 µM (recombinant MtbUGM; mean of two replicates): 94%; IC50 (recombinant MtbUGM; Table 4): 19 ± 6 µM; MIC (M. smegmatis [1]; Table 4): 125 µM (≈ 77.1 µg/mL); CeUGM % Inhibition at 10 μM (CeUGM; 10 μM): 91.7 ± 0.5%; Effective inhibitor of C. elegans growth at 250 μM (C. elegans [3]; Table 8): Yes
CS(=O)(=O)NC(=O)C(Cc1ccc(I)cc1)Nc1nc(-c2ccc(Cl)c(Cl)c2)cs1 (stereo not shown) [Compound 2, 2-((4-(3,4-dichlorophenyl)thiazol-2-yl)amino)-3-(4-iodophenyl)-N-(methylsulfonyl)propanamide] | 12 ± 5 | 25 (≈ 14.9 µg/mL) | 80.7 ± 1.1 | 100 | significantly inhibit | Yes | 7 ± 0.1 | No | No | No | No | No aggregation was observed | inhibition at 50 µM (recombinant MtbUGM; [10]): > 90%; Time until first rupture in bleach, sodium hydroxide solution (C. elegans [6]): enhances bleach sensitivity significantly; also recorded: statistically significant decrease; Prevention of C. elegans maturation to adulthood and eventual proliferation (C. elegans [3]): show the ability to prevent C. elegans maturation to adulthood and eventual proliferation
O=C(NS(=O)(=O)C(F)(F)F)C(Cc1ccc(I)cc1)Nc1nc(-c2ccc(Cl)c(Cl)c2)cs1 (stereo not shown) [Compound 3, 2-((4-(3,4-dichlorophenyl)thiazol-2-yl)amino)-3-(4-iodophenyl)-N-((trifluoromethyl)sulfonyl)propanamide] | 16 ± 10 | 50 (≈ 32.5 µg/mL) | 84.8 ± 2.2 | 100 | significantly inhibit | Yes | 7.7 ± 0.6 | – | – | – | – | – | Prevention of C. elegans maturation to adulthood and eventual proliferation (C. elegans [3]): show the ability to prevent C. elegans maturation to adulthood and eventual proliferation
O=C(NS(=O)(=O)c1ccc(Cl)cc1)C(Cc1ccc(I)cc1)Nc1nc(-c2ccc(Cl)c(Cl)c2)cs1 (stereo not shown) [Compound 8, N-((4-chlorophenyl)sulfonyl)-2-((4-(3,4-dichlorophenyl)thiazol-2-yl)amino)-3-(4-iodophenyl)propanamide] | 3 ± 1 | 12.5 (≈ 8.66 µg/mL) | 100 ± 0 | 250 | significantly inhibit | Yes | 6.3 ± 0.6 | – | – | – | – | – | –
O=C(O)CC1Sc2nnc(Cc3ccc(Br)cc3)n2N=C1c1ccc(-c2ccccc2)cc1 (stereo not shown) [Compound 25, 2-(6-([1,1′-biphenyl]-4-yl)-3-(4-bromobenzyl)-7H-[1,2,4]triazolo[3,4-b][1,3,4]thiadiazin-7-yl)acetic acid] | – | – | – | – | – | – | – | – | – | – | – | – | MtbUGM activity in presence of compound (in words) (recombinant MtbUGM; 10 μM): completely ablated; inhibition at 10 µM (recombinant MtbUGM; 10 μM, mean of two replicates, read-out: % inhib MtbUGM (10 μM)): 100%; inhibition at 50 µM (recombinant MtbUGM; [11]): 100%; inhibition at 100 µM (recombinant MtbUGM; mean of two replicates): 100%; Effect of surfactant on relative inhibitor potency (recombinant MtbUGM; presence and absence of Tween80): insignificant; Aggregates by dynamic light scattering ([7]; 10 μM in PBS buffer): No aggregates were observed; Aggregates by dynamic light scattering ([7]; 100 μM in PBS buffer): No aggregates were observed
COc1ccc(S(=O)(=O)NC(=O)C(Cc2ccc(I)cc2)Nc2nc(-c3ccc(Cl)c(Cl)c3)cs2)cc1 (stereo not shown) [Compound 6, 2-((4-(3,4-dichlorophenyl)thiazol-2-yl)amino)-3-(4-iodophenyl)-N-((4-methoxyphenyl)sulfonyl)propanamide] | 18 ± 9 | 25 (≈ 17.2 µg/mL) | 92.4 ± 1.2 | – | – | No | 6 ± 0.1 | – | – | – | – | – | –

From patent publication US10080757B2 (WISCONSIN ALUMNI RESEARCH FOUNDATION, priority 2016, dated 2018)
